Data set [1] has as its system Trypanosoma cruzi. Description: Antitrypanosomal activity against epimastigote form of Trypanosoma cruzi Y assessed as inhibition of parasite proliferation incubated for 72 hrs by resazurin dye based analysis. Format: functional, organism-based. For orientation: Alamar Blue is a resazurin reagent that responds to reducing activity.
A short description of data set [2]: Cytotoxicity against rat H9c2 cells assessed as reduction in cell viability measured after 72 hrs by resazurin due based analysis. Format: toxicity. Particulars: rat, H9c2 cells.
A short description of data set [3]: Selectivity index, ratio of CC50 for cytotoxicity against rat H9c2 cells to IC50 for antitrypanosomal activity against epimastigote form of Trypanosoma cruzi Y. It counts as toxicity, cell-based. Particulars: read-out: Ratio IC50.
Data set [4] relates to Trypanosoma cruzi. Description: Antitrypanosomal activity against trypomastigote form of Trypanosoma cruzi Y assessed as inhibition of parasite viability incubated for 24 hrs by light microscopy. Format: functional, organism-based.
The target in data set [5] is Cruzipain (Trypanosoma cruzi) (UniProt P25779). Description: Inhibition of recombinant Trypanosoma cruzi Cruzain using Z-FR-AMC as substrate at 100 uM preincubated with enzyme for 10 mins and measured for 5 mins by fluorescence based analysis. Particulars: time 15.0 min.
Data set [6] has the same target. Description: Inhibition of recombinant Trypanosoma cruzi Cruzain using Z-FR-AMC as substrate at 100 uM measured for 5 mins by fluorescence based analysis.
A short description of data set [7]: Toxicity in po dosed Swiss mouse infected with trypomastigote form of Trypanosoma cruzi Y assessed as fur alteration administered via gavage for 7 days from day 5 post-infection and measured on day 13 post-infection. It counts as organism-based. Particulars: in vivo, 192 h, time 8 day.
The nature of data set [8]: Toxicity in po dosed Swiss mouse infected with trypomastigote form of Trypanosoma cruzi Y assessed as diarrhea administered via gavage for 7 days from day 5 post-infection and measured on day 13 post-infection. It counts as organism-based. Particulars: in vivo, 192 h, time 8 day.
Data set [9] in a line: Toxicity in po dosed Swiss mouse infected with trypomastigote form of Trypanosoma cruzi Y assessed as apathy administered via gavage for 7 days from day 5 post-infection and measured on day 13 post-infection. It counts as organism-based. Particulars: in vivo, 192 h, time 8 day.
The nature of data set [10]: Toxicity in po dosed Swiss mouse infected with trypomastigote form of Trypanosoma cruzi Y assessed as mortality administered via gavage for 7 days from day 5 post-infection and measured on day 13 post-infection. Format: organism-based. Particulars: in vivo, 192 h, time 8 day.
The nature of data set [11]: Toxicity in Swiss mouse infected with trypomastigote form of Trypanosoma cruzi Y assessed as increase in weight gain at 10 to 100 mg/kg, po administered via gavage for 7 days from day 5 post-infection. It counts as organism-based. Particulars: in vivo, 168 h, dose 10-100 mg/kg, time 7 day.
The nature of data set [12]: Toxicity in Swiss mouse infected with trypomastigote form of Trypanosoma cruzi Y assessed as collateral effects at 10 to 100 mg/kg, po administered via gavage for 7 days from day 5 post-infection. Format: organism-based. Particulars: in vivo, 168 h, dose 10-100 mg/kg, time 7 day.
Data set [13] is described as follows: Hepatotoxicity in Swiss mouse infected with trypomastigote form of Trypanosoma cruzi Y assessed as plasma alanine aminotransferase level at 50 to 100 mg/kg, po administered via gavage for 7 days from day 5 post-infection by spectrophotometry. It counts as toxicity, organism-based. Particulars: in vivo, 168 h, dose 50-100 mg/kg, time 7 day.
Data set [14] in a line: Hepatotoxicity in Swiss mouse infected with trypomastigote form of Trypanosoma cruzi Y assessed as plasma aspartate aminotransferase level at 50 to 100 mg/kg, po administered via gavage for 7 days from day 5 post-infection by spectrophotometry. Format: toxicity, organism-based. Particulars: in vivo, 168 h, dose 50-100 mg/kg, time 7 day.
Data set [15] relates to Trypanosoma cruzi. Description: Anti-trypanosomal activity against trypomastigote form of Trypanosoma cruzi Y infected in Swiss mouse assessed as reduction in parasitemia at 50 mg/kg, po administered via gavage for 7 days from day 5 post-infection. Particulars: time 7.0 day. It counts as functional, organism-based.
The subject of data set [16] is Mus musculus. Put plainly: Reduction in plasma total IgG level in Swiss mouse infected with trypomastigote form of Trypanosoma cruzi Y at 100 mg/kg, po administered via gavage for 7 days from day 5 post-infection by ELISA. Particulars: time 7.0 day. It counts as functional, organism-based. On the technique in general: An ELISA detects its analyte on a solid surface through an enzyme-linked reagent.

Data set [17] concerns Mus musculus. Put plainly: Reduction in plasma total IgG level in Swiss mouse infected with trypomastigote form of Trypanosoma cruzi Y at 10 to 50 mg/kg, po administered via gavage for 7 days from day 5 post-infection by ELISA. Format: functional, organism-based. Particulars: dose 10-50 mg/kg, time 7.0 day.
Data set [18] has as its system Mus musculus. Put plainly: Reduction in plasma IgG1 level in Swiss mouse infected with trypomastigote form of Trypanosoma cruzi Y at 100 mg/kg, po administered via gavage for 7 days from day 5 post-infection by ELISA. It counts as functional, organism-based. Particulars: time 7.0 day.
Data set [19] has as its system Mus musculus. Put plainly: Reduction in plasma IgG2 level in Swiss mouse infected with trypomastigote form of Trypanosoma cruzi Y at 100 mg/kg, po administered via gavage for 7 days from day 5 post-infection by ELISA. Format: functional, organism-based. Particulars: time 7.0 day.
Data set [20] relates to Mus musculus. Description: Reduction in cardiac inflammation in Swiss mouse infected with trypomastigote form of Trypanosoma cruzi Y assessed as reduction in inflammatory nuclei at 10 to 100 mg/kg, po administered via gavage for 7 days from day 5 post-infection by Hematoxylin-Eosin staining based microscopy. Format: functional, organism-based. Particulars: dose 10-100 mg/kg, time 7.0 day.

Data set [21] deals with Mus musculus. Put plainly: Reduction in plasma IgG1 level in Swiss mouse infected with trypomastigote form of Trypanosoma cruzi Y at 10 to 50 mg/kg, po administered via gavage for 7 days from day 5 post-infection by ELISA. Format: functional, organism-based. Particulars: dose 10-50 mg/kg, time 7.0 day.
The test system of data set [22] is Mus musculus. Description: Reduction in plasma IgG2 level in Swiss mouse infected with trypomastigote form of Trypanosoma cruzi Y at 10 to 50 mg/kg, po administered via gavage for 7 days from day 5 post-infection by ELISA. Particulars: dose 10-50 mg/kg, time 7.0 day. It counts as functional, organism-based.
Data set [23] can be described thus: Genotoxicity in rat H9c2 cells assessed as induction of DNA damage at 10 uM incubated for 72 hrs by gel electrophoresis analysis. Format: toxicity, cell-based. Particulars: h9c2, 72 h.
Data set [24] concerns Trypanosoma cruzi. Put plainly: Anti-trypanosomal activity against trypomastigote form of Trypanosoma cruzi Y infected in Swiss mouse assessed as reduction in parasitemia at 100 mg/kg, po administered via gavage for 7 days from day 5 post-infection. Format: functional. Particulars: 168 h, time 7 day.

pIC50: −log10 of the molar value. Active and inactive are the calls of the source. No cut-off for these calls is given here.

Cruzipain (Trypanosoma cruzi), sequence (P25779 123-467 limits assumed): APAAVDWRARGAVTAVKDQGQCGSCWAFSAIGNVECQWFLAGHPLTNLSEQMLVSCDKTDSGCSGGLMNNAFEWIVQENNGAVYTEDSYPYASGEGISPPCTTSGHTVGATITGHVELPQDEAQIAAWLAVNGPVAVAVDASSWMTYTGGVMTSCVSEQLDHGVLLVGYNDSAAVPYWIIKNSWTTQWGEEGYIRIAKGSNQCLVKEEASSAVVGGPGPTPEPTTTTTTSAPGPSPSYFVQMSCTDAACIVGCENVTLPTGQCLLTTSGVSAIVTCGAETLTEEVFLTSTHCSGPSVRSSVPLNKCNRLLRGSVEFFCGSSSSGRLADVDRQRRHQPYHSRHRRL

With `CCCc1ccc(OCC(O)Cn2cc(COc3ccc([N+](=O)[O-])cc3)nn2)c(OC)c1` (racemic), the negative logarithm of the IC50 (pIC50) in the data set on Trypanosoma cruzi [1] was 5.14; in the data set on Trypanosoma cruzi [4], 5.08. Besides, the half-inhibitory concentration (IC50) at 72 h in data set [2] worked out at 568 µM. Further, the selectivity ratio in data set [3] is 77.6. Also, the inhibition in data set [5] and in [6] was 24% each time. Besides, the Activity entry in data set [7] was “Non-Toxic”; in data set [8], “Non-Toxic”; in data set [9], “Non-Toxic”; in data set [10], “Non-Toxic”; in data set [11], “Toxic”; in [12], “Non-Toxic”. For the same compound, the Activity result in data set [13], in [14] and in data set [23] was “Non-Toxic” throughout. The result in the data set on Trypanosoma cruzi [15] was Active. Also, the inhibition result with Mus musculus [16], in the data set with Mus musculus [18], in the data set with Mus musculus [19] and in the data set with Mus musculus [20] was “Active” throughout. For the same compound, the inhibition result in the data set on Mus musculus [17], in the data set on Mus musculus [21] and in the data set on Mus musculus [22] was “inactive” each time. Moreover, in the data set on Trypanosoma cruzi [24], the inhibition in vivo at 100 mg/kg was 99.4%.

Broadly, the pIC50 is −log10 of the IC50, conventionally taken in molar units. The term IC50 denotes the midpoint of a concentration-inhibition curve. As usually defined, the inhibition is the share of the control response that was lost under treatment. As a reminder, the inhibition in vivo is the relative decrease from the control value, in per cent.
